Patent publication US5948814A, “Genistein for the treatment of cystic fibrosis” (priority 1998, dated 1999)
Values joined by “and” are separate entries in the source; they are usually repeats but may differ in a detail not shown here. Identical values can stand only once.

Tests used:
[1] = tested on: mock-transfected NIH/3T3 cells; test: I- efflux, mock-transfected NIH/3T3 cells; format: cell-based
Experimental: (§1) Cell culture: NIH/3T3-CFTR, NIH/3T3-ΔF508, and NIH/3T3 mock cells (generous gifts from Dr. Richard Mulligan of Children's Hospital and Medical Center, Harvard Medical School) were grown as described [Bradbury et al., 1992] at 37° C. and 5% CO2 in Dulbecco's modified Eagle's medium-H21 supplemented with 10% new-born calf serum, 4 mM glutamine, 25 mM glucose, 100 μg/ml penicillin, 100 μg/ml streptomycin, and 50 μg/ml gentamicin. Cells were maintained in T75 flasks, passaged at 90-95% confluency, and split one to four. For measurements of I^- efflux and in vivo phosphorylation, cells were seeded onto 35-mm dishes at […]. For patch-clamp experiments, cells were grown on coverglass chips in 35-mm culture dishes. Media were replaced 24 hours after plating and thereafter every 48 hours. In all cases, media were changed on the day before I^- efflux studies, NIH/3T3-ΔF508 cells were transferred to 27° C. three days before use, and 1 day prior to study, media were supplemented with 5 mM butyrate. For patch-clamp studies, where a constant level of functional ΔF508-CFTR was not essential, NIH/3T3-ΔF508 cells were cultured at 27° C. for 2-6 days before use. Calu-3 cells were grown and maintained as described by Hunter [1995].
I^- efflux: I^- efflux was measured as described previously [Reenstra et al., 1996]. Briefly, cells were incubated for 30 minutes with 37° C. I^- efflux buffer [(in mM) 141 NaCl, 4 KCl, 1 KH2 PO4, 0.9 MgCl2, 1.7 CaCl2. […] Extracellular ^125 I^- was removed by washing four times with efflux buffer, and the rate of loss of intracellular ^125 I^- was determined by replacing the bathing solution with 37° C. efflux buffer every 60 seconds for 12 minutes. Time-dependent rates of ^125 I^- efflux are calculated from R=ln(^125 I^-t1 /^125 I^-t2)/(t1-t2), where ^125 I^-t is the intracellular ^125 I^- at time t and t1 and t2 are successive time points. […]
To investigate effects of genistein on CFTR activity, the rates of I^- efflux were measured from stably transfected NIH/3T3 cells expressing wt- and ΔF508-CFTR (NIH/33-CFTR and NIH/3T3-ΔF508 cells, respectively). […]

[2] = biological target: wt-CFTR (Homo sapiens, UniProt P13569)
wt-CFTR, sequence (P13569 whole entry): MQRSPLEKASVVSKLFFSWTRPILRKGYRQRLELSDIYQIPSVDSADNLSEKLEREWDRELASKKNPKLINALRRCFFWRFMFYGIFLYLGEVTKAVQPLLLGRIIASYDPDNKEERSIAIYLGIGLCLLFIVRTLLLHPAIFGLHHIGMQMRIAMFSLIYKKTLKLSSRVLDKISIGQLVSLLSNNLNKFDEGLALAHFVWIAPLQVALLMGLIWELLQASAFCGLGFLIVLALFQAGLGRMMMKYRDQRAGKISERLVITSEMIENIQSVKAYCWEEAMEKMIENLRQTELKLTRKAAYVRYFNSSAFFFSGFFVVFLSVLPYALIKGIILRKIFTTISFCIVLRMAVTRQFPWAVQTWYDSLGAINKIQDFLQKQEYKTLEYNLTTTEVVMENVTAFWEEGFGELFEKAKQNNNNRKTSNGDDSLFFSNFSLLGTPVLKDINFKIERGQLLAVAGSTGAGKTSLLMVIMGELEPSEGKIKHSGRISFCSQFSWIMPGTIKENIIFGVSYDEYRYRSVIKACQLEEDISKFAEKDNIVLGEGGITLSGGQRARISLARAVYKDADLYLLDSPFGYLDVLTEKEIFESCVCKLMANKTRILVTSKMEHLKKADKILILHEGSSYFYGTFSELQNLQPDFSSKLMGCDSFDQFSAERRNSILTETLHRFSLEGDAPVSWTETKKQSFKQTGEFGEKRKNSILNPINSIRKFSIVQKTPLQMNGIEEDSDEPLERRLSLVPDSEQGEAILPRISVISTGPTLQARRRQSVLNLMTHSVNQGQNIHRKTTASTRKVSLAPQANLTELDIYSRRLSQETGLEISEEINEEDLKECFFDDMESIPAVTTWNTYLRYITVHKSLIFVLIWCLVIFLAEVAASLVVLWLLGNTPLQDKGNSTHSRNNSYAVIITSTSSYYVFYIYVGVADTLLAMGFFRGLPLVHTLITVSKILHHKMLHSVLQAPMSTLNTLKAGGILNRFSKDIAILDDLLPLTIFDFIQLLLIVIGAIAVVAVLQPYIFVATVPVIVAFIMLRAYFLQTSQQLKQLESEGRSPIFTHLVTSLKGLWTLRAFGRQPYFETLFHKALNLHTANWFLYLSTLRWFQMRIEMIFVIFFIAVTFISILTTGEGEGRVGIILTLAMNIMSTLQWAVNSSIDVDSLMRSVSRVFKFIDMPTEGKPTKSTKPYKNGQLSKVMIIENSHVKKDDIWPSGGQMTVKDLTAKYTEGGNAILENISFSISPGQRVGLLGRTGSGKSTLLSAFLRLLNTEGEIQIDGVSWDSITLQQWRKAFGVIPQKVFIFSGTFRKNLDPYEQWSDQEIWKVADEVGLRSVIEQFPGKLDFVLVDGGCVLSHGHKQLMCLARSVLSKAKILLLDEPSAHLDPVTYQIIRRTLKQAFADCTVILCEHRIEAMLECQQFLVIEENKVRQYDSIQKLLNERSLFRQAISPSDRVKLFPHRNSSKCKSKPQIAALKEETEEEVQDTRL
Experimental: FIGS. 3A and B show recordings of the potentiation of wild-type (wt) and ΔF508-CFTR channel activity by genistein. […]
as §1
Electrophysiology: CFTR channel currents were recorded at room temperature (~22° C.) with a patch-clamp amplifier (EPC-9, Heka Electronic), filtered at 100 Hz with a built-in three-pole Bessel filter, and stored on videotapes. Data were subsequently refiltered at 25 Hz with an eight-pole Bessel filter (Frequency Device, Havervill, Mass.) and captured onto a hard disk at a sampling rate of 50 Hz. […] Patch-clamp electrodes were made from Corning 7052 glass capillaries (Warner Instrument, Hammed, Conn.). The pipette resistance was usually 3-5 M.OMEGA., and the seal resistance was >20 G.OMEGA.. The pipette solution contained (in mM) 140 N-methyl-D-glucamine chloride (NMDG-C1), 2 MgCl2, 5Ca Cl2, and 10 HEPES (pH 7.4 with NMDG). The superfusion solution contained (in mM) 150 […], 2 MgCl2, 1 EGTA, 5 glucose, and 5 HEPES (pH 7.4 with NaOH). In excised inside-out patch experiments, the bath solution contained (in mM) 130 MNDG-Cl, 10 EGTA, 10 HEPES, 20 tetraethylammonium chloride, 8 Tris, and 2 MgCl2 (pH 7.4 with NMDG). Pipette potential was held at 50 mV relative to the bath. Downward deflections represent channel opening.
Statistics: Mean currents and variance were estimated with Igor (Wavemetrics, Lake Oswego, Oreg.). Parameters for mean current-variance relationships and dose-response curves were obtained from least-square fitting with Sigmaplot (Jandel, San Rafael, Calif.). Po was calculated from patches containing a single channel by dividing the open channel current amplitude with the mean-current amplitude.

[3] = biological target: ΔF508-CFTR (Homo sapiens, UniProt P13569, DEL508-508); test: Mean current-variance analysis of macroscopic currents, NIH/3T3-ΔF508 cells; format: cell-based; design: expressed in transfected cells; host or cells: NIH/3T3 cells, stably transfected (NIH/3T3-ΔF508, gift of Dr. Richard Mulligan)
ΔF508-CFTR, sequence (P13569 with tags, fused parts or gaps DEL508-508): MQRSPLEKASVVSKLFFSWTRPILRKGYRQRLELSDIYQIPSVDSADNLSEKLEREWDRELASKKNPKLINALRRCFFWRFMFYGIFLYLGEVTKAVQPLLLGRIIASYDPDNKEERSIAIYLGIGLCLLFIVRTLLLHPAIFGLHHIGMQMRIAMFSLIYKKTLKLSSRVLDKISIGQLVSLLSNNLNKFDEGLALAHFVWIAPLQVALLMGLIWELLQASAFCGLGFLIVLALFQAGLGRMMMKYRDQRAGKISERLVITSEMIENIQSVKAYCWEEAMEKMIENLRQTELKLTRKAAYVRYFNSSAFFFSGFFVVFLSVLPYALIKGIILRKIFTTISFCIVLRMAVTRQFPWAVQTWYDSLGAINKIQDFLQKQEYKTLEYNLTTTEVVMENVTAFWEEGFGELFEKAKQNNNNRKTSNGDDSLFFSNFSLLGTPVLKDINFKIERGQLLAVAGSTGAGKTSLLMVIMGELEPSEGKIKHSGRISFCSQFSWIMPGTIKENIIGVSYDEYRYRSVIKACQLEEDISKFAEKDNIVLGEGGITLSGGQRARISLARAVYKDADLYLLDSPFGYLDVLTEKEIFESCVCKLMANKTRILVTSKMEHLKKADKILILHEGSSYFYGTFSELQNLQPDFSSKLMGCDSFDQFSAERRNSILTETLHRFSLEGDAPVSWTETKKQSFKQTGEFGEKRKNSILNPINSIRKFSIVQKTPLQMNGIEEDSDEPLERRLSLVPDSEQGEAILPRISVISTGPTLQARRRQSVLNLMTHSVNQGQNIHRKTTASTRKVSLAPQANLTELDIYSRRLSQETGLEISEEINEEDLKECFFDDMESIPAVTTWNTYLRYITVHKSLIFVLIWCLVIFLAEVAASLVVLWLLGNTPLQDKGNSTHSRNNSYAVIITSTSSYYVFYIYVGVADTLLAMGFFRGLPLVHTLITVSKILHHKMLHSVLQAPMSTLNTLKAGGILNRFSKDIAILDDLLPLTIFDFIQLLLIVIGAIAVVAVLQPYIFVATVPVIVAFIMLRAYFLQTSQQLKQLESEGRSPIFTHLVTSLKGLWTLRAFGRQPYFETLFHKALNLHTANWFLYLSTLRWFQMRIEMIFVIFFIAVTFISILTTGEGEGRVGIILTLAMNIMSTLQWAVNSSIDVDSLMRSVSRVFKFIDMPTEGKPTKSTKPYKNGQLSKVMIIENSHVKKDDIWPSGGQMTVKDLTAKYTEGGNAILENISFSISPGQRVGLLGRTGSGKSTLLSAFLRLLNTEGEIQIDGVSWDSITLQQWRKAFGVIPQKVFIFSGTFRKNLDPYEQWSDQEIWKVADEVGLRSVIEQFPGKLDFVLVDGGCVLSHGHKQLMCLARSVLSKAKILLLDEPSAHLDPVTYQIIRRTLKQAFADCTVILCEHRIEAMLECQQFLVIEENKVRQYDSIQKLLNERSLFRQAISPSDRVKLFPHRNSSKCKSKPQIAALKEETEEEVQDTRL
Experimental: FIGS. 4A and B are graphs showing the variance analysis of macroscopic currents for wt- and ΔF508-CFTR wherein (A) is a plot of variance as a function of mean-current amplitude for NIH/3T3-CFTR(.circle-solid.) and NIH/3T3-ΔF508 (.smallcircle.) cells stimulated with 10 μM forskolin plus 50 μM genistein. (B) is a plot of variance as a function of mean-current amplitude for NIH/3T3-CFTR (.circle-solid.) and NIH/3T3-ΔF508 (.smallcircle.) cells stimulated with 10 μM forskolin. Lines are least square regressions.
Electrophysiology: CFTR channel currents were recorded at room temperature (~22° C.) with a patch-clamp amplifier (EPC-9, Heka Electronic), filtered at 100 Hz with a built-in three-pole Bessel filter, and stored on videotapes. Data were subsequently refiltered at 25 Hz with an eight-pole Bessel filter (Frequency Device, Havervill, Mass.) and captured onto a hard disk at a sampling rate of 50 Hz. […] Patch-clamp electrodes were made from Corning 7052 glass capillaries (Warner Instrument, Hammed, Conn.). The pipette resistance was usually 3-5 M.OMEGA., and the seal resistance was >20 G.OMEGA.. […]
Statistics: Mean currents and variance were estimated with Igor (Wavemetrics, Lake Oswego, Oreg.). […] Po was calculated from patches containing a single channel by dividing the open channel current amplitude with the mean-current amplitude. […] Calculated values are presented as means±SE. […]

| SMILES | stimulation of I- efflux in mock cells ([1]; 1 μM forskolin) | single-channel current steps observed ([2]; 50 nM forskolin) | slope of variance vs mean current (proportional to 1-Po) ([3]; 10 μM forskolin) [pA] | stimulation of I- efflux in mock cells ([1]; 50 μM genistein) | stimulation of I- efflux in mock cells ([1]; 50 μM genistein plus 1 μM forskolin) | macroscopic current ([2]; 5 μM genistein with 50 nM forskolin) | average increase in mean-current amplitude by genistein ([2]; 50 μM genistein on 10 μM forskolin, NIH/3T3-CFTR, 50 µM) | increase of forskolin-dependent wt-CFTR activity by genistein ([2]; 50 μM genistein, NIH/3T3-CFTR cells incubated at 27° C. for 2-6 days, n=13) [fold] | increase of wt-CFTR current by genistein ([2]; multichannel patches, 50 nM forskolin, n=6) [fold] | slope of variance vs mean current (proportional to 1-Po) ([3]; 10 μM forskolin and 50 μM genistein) [pA] |
| --- | --- | --- | --- | --- | --- | --- | --- | --- | --- | --- |
| C=C[C@@]1(C)CC(=O)[C@]2(O)[C@@]3(C)[C@@H](O)CCC(C)(C)[C@@H]3[C@H](O)[C@H](OC(C)=O)[C@@]2(C)O1 [forskolin] | neither 1 μM forskolin, 50 μM genistein, nor 50 μM genistein plus 1 μM forskolin stimulated | ≤ 4 | 0.72±0.06 | – | – | – | – | – | – | – |
| O=c1c(-c2ccc(O)cc2)coc2cc(O)cc(O)c12 [Genistein, 4',5,7-trihydroxyisoflavone] | – | – | – | neither 1 μM forskolin, 50 μM genistein, nor 50 μM genistein plus 1 μM forskolin stimulated | neither 1 μM forskolin, 50 μM genistein, nor 50 μM genistein plus 1 μM forskolin stimulated | ~ 7.5 pA | 3.9±0.4 fold and 3.3±0.4 fold | 3.1±0.3 | 21±6 | 0.16±0.03 |
